Source: patent US9682995B2, “Amino-substituted isothiazoles” (BAYER PHARMA AKTIENGESELLSCHAFT, priority 2013, dated 2017)

Legend:
Assay in all cases: Kinase Profiling (KINOMEscan)
Assay type in all cases: binding
[1] = molecular target: 456 kinases (of these 395 non-mutant kinases) (Homo sapiens, UniProt P49840); conditions: GSK3A; 10 μM
[2] = molecular target: 456 kinases (of these 395 non-mutant kinases) (Homo sapiens, UniProt P51955); conditions: NEK2; 10 μM
[3] = molecular target: 456 kinases (of these 395 non-mutant kinases) (Homo sapiens, UniProt P41743); conditions: PRKCI; 10 μM
[4] = molecular target: 456 kinases (of these 395 non-mutant kinases) (Homo sapiens, UniProt Q5S007, G2019S); conditions: LRRK2(G2019S); 10 μM
[5] = molecular target: 456 kinases (of these 395 non-mutant kinases) (Homo sapiens, UniProt Q13554); conditions: CAMK2B; 10 μM
[6] = molecular target: 456 kinases (of these 395 non-mutant kinases) (Homo sapiens, UniProt P22694); conditions: PKAC-beta; 10 μM
[7] = molecular target: 456 kinases (of these 395 non-mutant kinases) (Homo sapiens, UniProt P06241); conditions: FYN; 10 μM
[8] = molecular target: 456 kinases (of these 395 non-mutant kinases) (Homo sapiens, UniProt P52333); conditions: JAK3(JH1domain-catalytic); 10 μM
[9] = molecular target: 456 kinases (of these 395 non-mutant kinases) (Homo sapiens, UniProt P36897); conditions: TGFBR1; 10 μM
[10] = molecular target: 456 kinases (of these 395 non-mutant kinases) (Homo sapiens, UniProt P30530); conditions: AXL; 10 μM
[11] = molecular target: 456 kinases (of these 395 non-mutant kinases) (Homo sapiens, UniProt P07948); conditions: LYN; 10 μM
[12] = molecular target: 456 kinases (of these 395 non-mutant kinases) (Homo sapiens, UniProt Q12851); conditions: MAP4K2; 10 μM
[13] = molecular target: 456 kinases (of these 395 non-mutant kinases) (Homo sapiens, UniProt P07947); conditions: YES; 10 μM
[14] = molecular target: 456 kinases (of these 395 non-mutant kinases) (Homo sapiens, UniProt P36507); conditions: MEK2; 10 μM
[15] = molecular target: 456 kinases (of these 395 non-mutant kinases) (Homo sapiens, UniProt Q13555); conditions: CAMK2G; 10 μM
[16] = molecular target: 456 kinases (of these 395 non-mutant kinases) (Homo sapiens, UniProt Q8WTQ7); conditions: GRK7; 10 μM
[17] = molecular target: 456 kinases (of these 395 non-mutant kinases) (Homo sapiens, UniProt P42336, I800L); conditions: PIK3CA(I800L); 10 μM
[18] = molecular target: 456 kinases (of these 395 non-mutant kinases) (Homo sapiens, UniProt P07949); conditions: RET; 10 μM
[19] = molecular target: 456 kinases (of these 395 non-mutant kinases) (Homo sapiens, UniProt P29320); conditions: EPHA3; 10 μM
[20] = molecular target: 456 kinases (of these 395 non-mutant kinases) (Homo sapiens, UniProt P30291); conditions: WEE1; 10 μM
[21] = molecular target: 456 kinases (of these 395 non-mutant kinases) (Homo sapiens, UniProt Q13705); conditions: ACVR2B; 10 μM
[22] = molecular target: 456 kinases (of these 395 non-mutant kinases) (Homo sapiens, UniProt Q08881); conditions: ITK; 10 μM
[23] = molecular target: 456 kinases (of these 395 non-mutant kinases) (Homo sapiens, UniProt P42336, Q546K); conditions: PIK3CA(Q546K); 10 μM
[24] = molecular target: 456 kinases (of these 395 non-mutant kinases) (Homo sapiens, UniProt Q04759); conditions: PRKCQ; 10 μM
[25] = molecular target: 456 kinases (of these 395 non-mutant kinases) (Homo sapiens, UniProt O75385); conditions: ULK1; 10 μM
[26] = molecular target: 456 kinases (of these 395 non-mutant kinases) (Homo sapiens, UniProt P09619); conditions: PDGFRB; 10 μM
[27] = molecular target: 456 kinases (of these 395 non-mutant kinases) (Homo sapiens, UniProt O00444); conditions: PLK4; 10 μM
[28] = molecular target: 456 kinases (of these 395 non-mutant kinases) (Homo sapiens, UniProt Q13164); conditions: ERK5; 10 μM
[29] = molecular target: 456 kinases (of these 395 non-mutant kinases) (Homo sapiens, UniProt Q12852); conditions: DLK; 10 μM
[30] = molecular target: 456 kinases (of these 395 non-mutant kinases) (Homo sapiens, UniProt P10721, V559D); conditions: KIT(V559D); 10 μM
[31] = molecular target: 456 kinases (of these 395 non-mutant kinases) (Homo sapiens, UniProt Q06187); conditions: BTK; 10 μM
[32] = molecular target: 456 kinases (of these 395 non-mutant kinases) (Homo sapiens, UniProt Q15835); conditions: GRK1; 10 μM

Chain of 456 kinases (of these 395 non-mutant kinases) (Homo sapiens, UniProt P07948) (P07948 2-512 limits assumed, change not shown): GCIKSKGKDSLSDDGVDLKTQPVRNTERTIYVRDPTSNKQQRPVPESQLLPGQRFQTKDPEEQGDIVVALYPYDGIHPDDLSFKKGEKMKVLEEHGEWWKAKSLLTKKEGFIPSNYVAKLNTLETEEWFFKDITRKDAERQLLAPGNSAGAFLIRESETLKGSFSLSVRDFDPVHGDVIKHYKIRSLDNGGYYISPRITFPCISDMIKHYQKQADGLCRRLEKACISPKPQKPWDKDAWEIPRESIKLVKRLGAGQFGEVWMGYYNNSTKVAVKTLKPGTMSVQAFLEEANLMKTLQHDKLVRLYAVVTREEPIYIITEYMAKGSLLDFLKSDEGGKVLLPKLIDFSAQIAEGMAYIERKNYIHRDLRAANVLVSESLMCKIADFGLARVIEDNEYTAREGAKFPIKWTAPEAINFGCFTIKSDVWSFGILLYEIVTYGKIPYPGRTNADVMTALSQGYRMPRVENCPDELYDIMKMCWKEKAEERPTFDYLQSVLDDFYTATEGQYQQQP
Chain of 456 kinases (of these 395 non-mutant kinases) (Homo sapiens, UniProt P36897) (P36897 34-503 limits assumed, change not shown): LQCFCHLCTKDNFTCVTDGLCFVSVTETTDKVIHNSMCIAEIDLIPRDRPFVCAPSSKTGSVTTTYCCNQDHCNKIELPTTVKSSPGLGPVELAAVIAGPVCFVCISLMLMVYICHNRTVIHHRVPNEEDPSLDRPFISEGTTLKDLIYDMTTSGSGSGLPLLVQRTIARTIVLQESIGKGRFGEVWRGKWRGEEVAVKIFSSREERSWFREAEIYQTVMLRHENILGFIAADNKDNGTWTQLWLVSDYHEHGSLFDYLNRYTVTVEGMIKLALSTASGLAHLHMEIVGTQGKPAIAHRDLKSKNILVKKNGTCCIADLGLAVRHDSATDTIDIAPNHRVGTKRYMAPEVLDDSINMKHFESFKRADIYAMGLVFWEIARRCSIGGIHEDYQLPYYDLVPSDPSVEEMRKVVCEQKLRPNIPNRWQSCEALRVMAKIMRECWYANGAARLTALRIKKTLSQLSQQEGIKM
Chain of 456 kinases (of these 395 non-mutant kinases) (Homo sapiens, UniProt P30530) (P30530 26-894 limits assumed, change not shown): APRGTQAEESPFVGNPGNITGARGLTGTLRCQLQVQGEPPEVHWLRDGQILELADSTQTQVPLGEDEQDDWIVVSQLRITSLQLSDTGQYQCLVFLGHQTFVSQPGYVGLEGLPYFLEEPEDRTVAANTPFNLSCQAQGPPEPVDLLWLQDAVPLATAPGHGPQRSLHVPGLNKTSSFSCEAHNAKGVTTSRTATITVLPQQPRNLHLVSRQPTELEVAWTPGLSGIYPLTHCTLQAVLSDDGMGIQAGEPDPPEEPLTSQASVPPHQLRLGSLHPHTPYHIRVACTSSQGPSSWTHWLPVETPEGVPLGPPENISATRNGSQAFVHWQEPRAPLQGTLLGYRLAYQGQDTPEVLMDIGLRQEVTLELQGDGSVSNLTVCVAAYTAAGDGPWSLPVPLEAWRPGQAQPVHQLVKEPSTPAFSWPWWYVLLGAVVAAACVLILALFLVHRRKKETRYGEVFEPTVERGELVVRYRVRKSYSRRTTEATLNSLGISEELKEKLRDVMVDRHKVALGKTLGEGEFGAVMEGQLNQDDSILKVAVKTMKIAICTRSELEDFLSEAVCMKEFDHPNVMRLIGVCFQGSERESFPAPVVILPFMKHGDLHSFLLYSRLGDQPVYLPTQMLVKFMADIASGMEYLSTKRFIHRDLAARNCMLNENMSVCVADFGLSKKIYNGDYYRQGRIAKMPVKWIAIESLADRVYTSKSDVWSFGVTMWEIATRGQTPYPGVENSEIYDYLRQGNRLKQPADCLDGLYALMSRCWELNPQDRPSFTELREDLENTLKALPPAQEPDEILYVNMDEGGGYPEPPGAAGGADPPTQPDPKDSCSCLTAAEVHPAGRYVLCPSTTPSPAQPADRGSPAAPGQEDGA
Chain of 456 kinases (of these 395 non-mutant kinases) (Homo sapiens, UniProt P06241) (P06241 2-537 limits assumed, change not shown): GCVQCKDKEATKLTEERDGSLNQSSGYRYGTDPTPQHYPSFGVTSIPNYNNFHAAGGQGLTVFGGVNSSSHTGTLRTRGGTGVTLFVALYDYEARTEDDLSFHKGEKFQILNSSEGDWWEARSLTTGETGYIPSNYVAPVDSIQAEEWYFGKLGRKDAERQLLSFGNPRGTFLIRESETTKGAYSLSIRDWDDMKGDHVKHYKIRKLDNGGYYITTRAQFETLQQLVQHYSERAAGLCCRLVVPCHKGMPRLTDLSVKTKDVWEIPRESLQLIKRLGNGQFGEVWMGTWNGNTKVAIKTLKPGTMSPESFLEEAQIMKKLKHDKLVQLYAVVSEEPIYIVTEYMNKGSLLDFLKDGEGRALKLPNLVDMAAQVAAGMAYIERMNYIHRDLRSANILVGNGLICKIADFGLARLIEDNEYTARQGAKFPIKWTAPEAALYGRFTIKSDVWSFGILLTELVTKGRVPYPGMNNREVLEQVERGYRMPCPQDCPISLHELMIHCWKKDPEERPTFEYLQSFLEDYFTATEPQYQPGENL
Chain of 456 kinases (of these 395 non-mutant kinases) (Homo sapiens, UniProt Q13705) (Q13705 19-512 limits assumed, change not shown): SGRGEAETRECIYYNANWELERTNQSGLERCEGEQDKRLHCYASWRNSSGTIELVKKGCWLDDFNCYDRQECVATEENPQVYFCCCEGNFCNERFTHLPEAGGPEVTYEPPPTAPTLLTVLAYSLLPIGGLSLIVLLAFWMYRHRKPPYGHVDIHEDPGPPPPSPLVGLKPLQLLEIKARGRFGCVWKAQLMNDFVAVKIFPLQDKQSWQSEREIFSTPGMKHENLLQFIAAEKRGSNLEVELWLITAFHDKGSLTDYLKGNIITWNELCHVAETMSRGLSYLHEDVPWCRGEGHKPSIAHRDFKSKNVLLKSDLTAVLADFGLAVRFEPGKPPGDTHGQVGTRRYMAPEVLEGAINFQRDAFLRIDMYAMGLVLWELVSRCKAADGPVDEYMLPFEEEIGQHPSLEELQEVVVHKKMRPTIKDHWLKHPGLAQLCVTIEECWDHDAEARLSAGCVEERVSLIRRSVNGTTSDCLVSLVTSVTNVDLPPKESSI
Chain of 456 kinases (of these 395 non-mutant kinases) (Homo sapiens, UniProt P41743) (P41743 2-596 limits assumed, stated change not applied): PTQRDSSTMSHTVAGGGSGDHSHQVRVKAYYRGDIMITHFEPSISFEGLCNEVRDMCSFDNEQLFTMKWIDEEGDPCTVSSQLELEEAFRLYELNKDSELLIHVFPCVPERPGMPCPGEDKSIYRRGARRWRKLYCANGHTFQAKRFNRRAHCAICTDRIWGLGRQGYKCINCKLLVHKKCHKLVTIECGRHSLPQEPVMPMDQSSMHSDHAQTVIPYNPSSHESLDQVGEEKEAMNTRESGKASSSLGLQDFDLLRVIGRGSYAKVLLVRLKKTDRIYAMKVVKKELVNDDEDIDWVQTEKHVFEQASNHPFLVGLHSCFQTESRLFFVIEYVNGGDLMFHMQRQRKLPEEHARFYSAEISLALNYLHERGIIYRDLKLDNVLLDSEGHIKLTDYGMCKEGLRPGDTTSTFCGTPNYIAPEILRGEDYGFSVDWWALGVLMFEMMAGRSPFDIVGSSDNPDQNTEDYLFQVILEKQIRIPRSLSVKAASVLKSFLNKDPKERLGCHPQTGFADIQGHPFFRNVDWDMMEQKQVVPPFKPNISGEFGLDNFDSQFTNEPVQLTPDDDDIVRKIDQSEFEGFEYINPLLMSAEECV
Chain of 456 kinases (of these 395 non-mutant kinases) (Homo sapiens, UniProt P29320) (P29320 21-983 limits assumed, change not shown): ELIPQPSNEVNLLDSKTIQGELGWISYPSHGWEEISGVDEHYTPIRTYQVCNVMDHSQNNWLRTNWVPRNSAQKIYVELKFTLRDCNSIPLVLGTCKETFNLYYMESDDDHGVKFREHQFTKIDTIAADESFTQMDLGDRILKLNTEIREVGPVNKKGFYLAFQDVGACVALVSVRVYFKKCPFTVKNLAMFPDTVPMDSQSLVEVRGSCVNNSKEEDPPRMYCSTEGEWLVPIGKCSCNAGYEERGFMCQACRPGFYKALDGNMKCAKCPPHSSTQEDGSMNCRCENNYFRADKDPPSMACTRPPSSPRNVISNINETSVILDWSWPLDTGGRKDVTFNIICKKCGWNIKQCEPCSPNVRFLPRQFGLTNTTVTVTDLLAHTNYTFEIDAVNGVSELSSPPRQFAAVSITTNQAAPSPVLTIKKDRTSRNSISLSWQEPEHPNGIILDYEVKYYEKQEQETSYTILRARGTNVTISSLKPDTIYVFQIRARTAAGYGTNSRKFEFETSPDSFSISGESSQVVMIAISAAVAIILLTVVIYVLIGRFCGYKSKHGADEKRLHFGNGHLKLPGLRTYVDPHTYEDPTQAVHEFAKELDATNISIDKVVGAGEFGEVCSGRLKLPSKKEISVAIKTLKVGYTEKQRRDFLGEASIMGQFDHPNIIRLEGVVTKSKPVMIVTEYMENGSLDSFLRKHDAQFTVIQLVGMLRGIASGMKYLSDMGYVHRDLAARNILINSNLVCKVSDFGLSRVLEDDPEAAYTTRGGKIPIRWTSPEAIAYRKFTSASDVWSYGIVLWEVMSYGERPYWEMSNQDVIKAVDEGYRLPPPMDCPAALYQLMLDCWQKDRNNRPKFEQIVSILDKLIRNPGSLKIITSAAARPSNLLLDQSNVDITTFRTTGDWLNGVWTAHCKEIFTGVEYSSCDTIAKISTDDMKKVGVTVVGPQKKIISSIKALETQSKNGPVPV
Chain of 456 kinases (of these 395 non-mutant kinases) (Homo sapiens, UniProt P07947) (P07947 2-543 limits assumed, change not shown): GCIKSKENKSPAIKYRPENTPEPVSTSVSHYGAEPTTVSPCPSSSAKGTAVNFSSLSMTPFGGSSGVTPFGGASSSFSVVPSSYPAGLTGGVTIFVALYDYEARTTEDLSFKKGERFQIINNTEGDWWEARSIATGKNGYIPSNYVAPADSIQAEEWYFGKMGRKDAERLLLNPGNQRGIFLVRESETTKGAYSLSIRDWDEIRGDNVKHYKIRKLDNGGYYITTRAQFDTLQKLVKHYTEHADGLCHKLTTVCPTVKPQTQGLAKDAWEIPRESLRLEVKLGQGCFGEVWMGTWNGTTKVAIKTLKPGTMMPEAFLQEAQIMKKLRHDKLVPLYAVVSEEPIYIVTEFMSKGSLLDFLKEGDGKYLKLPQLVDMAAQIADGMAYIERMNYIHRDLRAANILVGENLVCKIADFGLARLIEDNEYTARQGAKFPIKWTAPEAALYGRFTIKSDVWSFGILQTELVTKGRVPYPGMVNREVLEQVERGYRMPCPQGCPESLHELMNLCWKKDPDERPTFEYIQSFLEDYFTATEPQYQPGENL

## CCc1ccccc1NC(=O)c1c(C)nsc1Nc1cnc2cc(F)ccc2n1 [Example 20, N-(2-Ethylphenyl)-5-[(6-fluoroquinoxalin-2-yl)amino]-3-methyl-1,2-thiazole-4-carboxamide]
[1]
  % Ctrl @ 10 μM: 68 % Ctrl
[2]
  % Ctrl @ 10 μM: 100 % Ctrl
[3]
  % Ctrl @ 10 μM: 100 % Ctrl
[4]
  % Ctrl @ 10 μM: 92 % Ctrl
[5]
  % Ctrl @ 10 μM: 82 % Ctrl
[6]
  % Ctrl @ 10 μM: 82 % Ctrl
[7]
  % Ctrl @ 10 μM: 57 % Ctrl
[8]
  % Ctrl @ 10 μM: 82 % Ctrl
[9]
  % Ctrl @ 10 μM: 100 % Ctrl
[10]
  % Ctrl @ 10 μM: 90 % Ctrl
[11]
  % Ctrl @ 10 μM: 76 % Ctrl
[12]
  % Ctrl @ 10 μM: 99 % Ctrl
[13]
  % Ctrl @ 10 μM: 90 % Ctrl
[14]
  % Ctrl @ 10 μM: 100 % Ctrl
[15]
  % Ctrl @ 10 μM: 75 % Ctrl
[16]
  % Ctrl @ 10 μM: 94 % Ctrl
[17]
  % Ctrl @ 10 μM: 93 % Ctrl
[18]
  % Ctrl @ 10 μM: 88 % Ctrl
[19]
  % Ctrl @ 10 μM: 95 % Ctrl
[20]
  % Ctrl @ 10 μM: 100 % Ctrl
[21]
  % Ctrl @ 10 μM: 91 % Ctrl
[22]
  % Ctrl @ 10 μM: 100 % Ctrl
[23]
  % Ctrl @ 10 μM: 66 % Ctrl
[24]
  % Ctrl @ 10 μM: 76 % Ctrl
[25]
  % Ctrl @ 10 μM: 100 % Ctrl
[26]
  % Ctrl @ 10 μM: 89 % Ctrl
[27]
  % Ctrl @ 10 μM: 100 % Ctrl
[28]
  % Ctrl @ 10 μM: 100 % Ctrl
[29]
  % Ctrl @ 10 μM: 94 % Ctrl
[30]
  % Ctrl @ 10 μM: 61 % Ctrl
[31]
  % Ctrl @ 10 μM: 98 % Ctrl
[32]
  % Ctrl @ 10 μM: 100 % Ctrl
